Reference: US20180099931A1 (AbbVie S.à.r.l., priority 2016, published 2018)
Read-outs that look alike come from different tables or passages of the source.

Target: T1, F508delCFTR (Homo sapiens, UniProt P13569, DEL508-508)
T1 construct: expressed in transfected cells; host or cells: CFBE41o- human lung-derived epithelial cells (CFBE4lo-F508delCFTR-HRP), doxycycline-inducible
Experiment: Cell Surface Expression-Horse Radish Peroxidase (CSE-HRP) Assay;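 for Maximum % activity (with co-corrector): co-corrector and positive control are both the same reference corrector at 2 µM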;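 for Maximum % activity (without co-corrector): percent of the 2 µM on-plate positive control corrector response above DMSO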
Type: cell-based
Conditions: CSE-HRP; for Maximum % activity (with co-corrector): with co-corrector (2 μM); for Maximum % activity (with co-corrector) / Emax: maximum at any tested concentration, normalized to on-plate positive control; for Emax: without co-corrector, read-out: Maximum % activity (without co-corrector)

[1] = test compound without co-corrector, read-out: EC50 (without co-corrector)
[2] = with co-corrector (2 μM of 3-[(2R,4R)-4-({[1-(2,2-difluoro-1,3-benzodioxol-5-yl)cyclopropyl]carbonyl}amino)-7-methoxy-3,4-dihydro-2H-chromen-2-yl]benzoic acid), read-out: EC50 (with co-corrector)

T1 sequence (P13569 with tags, fused parts or gaps DEL508-508): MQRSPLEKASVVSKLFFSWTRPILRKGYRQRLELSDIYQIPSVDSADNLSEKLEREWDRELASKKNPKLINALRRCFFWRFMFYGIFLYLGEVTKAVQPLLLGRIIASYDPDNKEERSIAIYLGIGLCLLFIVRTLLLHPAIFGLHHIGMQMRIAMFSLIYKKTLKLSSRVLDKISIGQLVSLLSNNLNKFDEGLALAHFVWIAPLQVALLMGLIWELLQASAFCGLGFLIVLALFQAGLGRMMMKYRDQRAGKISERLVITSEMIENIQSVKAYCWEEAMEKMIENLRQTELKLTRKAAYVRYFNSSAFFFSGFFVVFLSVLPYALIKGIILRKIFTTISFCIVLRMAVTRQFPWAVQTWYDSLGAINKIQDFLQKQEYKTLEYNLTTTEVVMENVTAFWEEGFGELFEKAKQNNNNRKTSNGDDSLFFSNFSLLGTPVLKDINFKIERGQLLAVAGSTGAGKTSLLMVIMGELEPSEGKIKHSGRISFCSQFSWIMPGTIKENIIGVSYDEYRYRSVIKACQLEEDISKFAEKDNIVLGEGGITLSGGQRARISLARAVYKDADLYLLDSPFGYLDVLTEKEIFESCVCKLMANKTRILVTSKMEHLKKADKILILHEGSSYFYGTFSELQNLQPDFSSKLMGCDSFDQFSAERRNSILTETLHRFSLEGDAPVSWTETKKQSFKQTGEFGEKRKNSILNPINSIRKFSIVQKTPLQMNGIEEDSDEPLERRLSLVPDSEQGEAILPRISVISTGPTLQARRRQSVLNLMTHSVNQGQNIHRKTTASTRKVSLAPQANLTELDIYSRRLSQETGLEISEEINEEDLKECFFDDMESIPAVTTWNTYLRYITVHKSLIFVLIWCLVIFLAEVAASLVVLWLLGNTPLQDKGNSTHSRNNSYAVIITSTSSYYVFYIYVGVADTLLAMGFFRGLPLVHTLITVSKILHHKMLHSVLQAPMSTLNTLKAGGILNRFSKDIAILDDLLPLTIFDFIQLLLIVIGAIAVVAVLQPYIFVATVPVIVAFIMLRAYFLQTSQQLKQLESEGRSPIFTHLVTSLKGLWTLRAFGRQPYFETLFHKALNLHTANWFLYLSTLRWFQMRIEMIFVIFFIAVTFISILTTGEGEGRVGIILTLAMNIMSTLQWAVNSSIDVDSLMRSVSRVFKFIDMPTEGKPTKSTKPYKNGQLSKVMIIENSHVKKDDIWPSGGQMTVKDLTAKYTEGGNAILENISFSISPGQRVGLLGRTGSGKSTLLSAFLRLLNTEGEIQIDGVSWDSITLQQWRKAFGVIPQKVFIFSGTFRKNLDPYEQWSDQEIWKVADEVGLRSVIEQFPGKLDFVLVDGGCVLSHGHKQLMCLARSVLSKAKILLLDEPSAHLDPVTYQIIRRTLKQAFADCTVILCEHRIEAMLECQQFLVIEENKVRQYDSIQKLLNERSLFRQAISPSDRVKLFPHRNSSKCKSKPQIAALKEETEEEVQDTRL

SMILES	EC50 [1] [nM]	EC50 [2] [nM]	Maximum % activity (with co-corrector)	Emax [%]
COc1ccc(C(C)(C)C)cc1CN[C@H]1[C@H](C(C)(C)C)[C@@H](C(=O)O)N(C(=O)C(OC)C(C)C)[C@H]1c1ccccc1 (stereo partly drawn) [II-267]	1000 to 10000	1000 to 10000	+++ (≥350)	> 200
COc1ccc(C(F)(F)F)cc1CN[C@H]1[C@H](C(C)(C)C)[C@@H](C(=O)O)N(C(=O)C(OC)C(C)C)[C@H]1c1ccccc1 (stereo partly drawn) [II-273]	1000 to 10000	1000 to 10000	+++ (≥350)	> 200
COc1ccc(-c2cccs2)cc1CN[C@H]1[C@H](C(C)(C)C)[C@@H](C(=O)O)N(C(=O)C2CCCCC2)[C@H]1c1ccccc1 [II-275]	< 1000	< 1000	+++ (≥350)	> 200
COc1ccc(-c2ccoc2)cc1CN[C@H]1[C@H](C(C)(C)C)[C@@H](C(=O)O)N(C(=O)C2CCCCC2)[C@H]1c1ccccc1 [II-276]	1000 to 10000	< 1000	+++ (≥350)	> 200
COc1cccc(-c2ccc(OC)c(CN[C@H]3[C@H](C(C)(C)C)[C@@H](C(=O)O)N(C(=O)C4CCCCC4)[C@H]3c3ccccc3)c2)c1 [II-277]	1000 to 10000	< 1000	+++ (≥350)	> 200
COc1ccc(-c2ccc(C)nc2)cc1CN[C@H]1[C@H](C(C)(C)C)[C@@H](C(=O)O)N(C(=O)C2CCCCC2)[C@H]1c1ccccc1 [II-278]	1000 to 10000	1000 to 10000	+++ (≥350)	100 to 200
COc1ccc(-c2ccccc2C)cc1CN[C@H]1[C@H](C(C)(C)C)[C@@H](C(=O)O)N(C(=O)C2CCCCC2)[C@H]1c1ccccc1 [II-279]	< 1000	< 1000	+++ (≥350)	> 200
COc1ccc(-c2cnccc2C)cc1CN[C@H]1[C@H](C(C)(C)C)[C@@H](C(=O)O)N(C(=O)C2CCCCC2)[C@H]1c1ccccc1 [II-280]	1000 to 10000	1000 to 10000	+++ (≥350)	< 100
COc1ccc(-c2cccc(C#N)c2)cc1CN[C@H]1[C@H](C(C)(C)C)[C@@H](C(=O)O)N(C(=O)C2CCCCC2)[C@H]1c1ccccc1 [II-281]	1000 to 10000	1000 to 10000	+++ (≥350)	100 to 200
COc1ccc(-c2ccc(F)cc2C)cc1CN[C@H]1[C@H](C(C)(C)C)[C@@H](C(=O)O)N(C(=O)C2CCCCC2)[C@H]1c1ccccc1 [II-282]	< 1000	< 1000	+++ (≥350)	> 200
COc1ccc(-c2ccc(F)cc2F)cc1CN[C@H]1[C@H](C(C)(C)C)[C@@H](C(=O)O)N(C(=O)C2CCCCC2)[C@H]1c1ccccc1 [II-283]	< 1000	< 1000	+++ (≥350)	> 200
COc1ccc(-c2cccnc2)cc1CN[C@H]1[C@H](C(C)(C)C)[C@@H](C(=O)O)N(C(=O)C2CCCCC2)[C@H]1c1ccccc1 [II-284]	1000 to 10000	1000 to 10000	+++ (≥350)	< 100
COc1ccc(-c2c(C)noc2C)cc1CN[C@H]1[C@H](C(C)(C)C)[C@@H](C(=O)O)N(C(=O)C2CCCCC2)[C@H]1c1ccccc1 [II-285]	1000 to 10000	1000 to 10000	+++ (≥350)	100 to 200
COc1ccc(-c2cccc(F)c2F)cc1CN[C@H]1[C@H](C(C)(C)C)[C@@H](C(=O)O)N(C(=O)C2CCCCC2)[C@H]1c1ccccc1 [II-286]	< 1000	< 1000	+++ (≥350)	> 200
COc1ccc(-c2cncc(F)c2)cc1CN[C@H]1[C@H](C(C)(C)C)[C@@H](C(=O)O)N(C(=O)C2CCCCC2)[C@H]1c1ccccc1 [II-287]	1000 to 10000	1000 to 10000	+++ (≥350)	100 to 200
COc1ccc(-c2cccnc2C)cc1CN[C@H]1[C@H](C(C)(C)C)[C@@H](C(=O)O)N(C(=O)C2CCCCC2)[C@H]1c1ccccc1 [II-288]	1000 to 10000	1000 to 10000	+++ (≥350)	< 100
COc1ccc(-c2ccc(C#N)cc2)cc1CN[C@H]1[C@H](C(C)(C)C)[C@@H](C(=O)O)N(C(=O)C2CCCCC2)[C@H]1c1ccccc1 [II-289]	< 1000	1000 to 10000	+++ (≥350)	< 100
COc1ccc(-c2cnn(C3CCC3)c2)cc1CN[C@H]1[C@H](C(C)(C)C)[C@@H](C(=O)O)N(C(=O)C2CCCCC2)[C@H]1c1ccccc1 [II-290]	1000 to 10000	1000 to 10000	++ (≥150 and <350)	< 100
COc1ccc(-c2ccco2)cc1CN[C@H]1[C@H](C(C)(C)C)[C@@H](C(=O)O)N(C(=O)C2CCCCC2)[C@H]1c1ccccc1 [II-291]	1000 to 10000	1000 to 10000	+++ (≥350)	> 200
COc1ccc(OC(F)F)cc1CN[C@H]1[C@H](C(C)(C)C)[C@@H](C(=O)O)N(C(=O)C2CCCCC2)[C@H]1c1ccccc1 [II-292]	1000 to 10000	1000 to 10000	+++ (≥350)	100 to 200
COc1ccc(C2=CCOC2)cc1CN[C@H]1[C@H](C(C)(C)C)[C@@H](C(=O)O)N(C(=O)C2CCCCC2)[C@H]1c1ccccc1 [II-293]	1000 to 10000	1000 to 10000	+++ (≥350)	100 to 200
COc1ccc(C(C)(C)C)cc1CN[C@H]1[C@H](C(C)(C)OC)[C@@H](C(=O)O)N(C(=O)C2CCCCC2)[C@H]1c1ccccc1OC [II-294]	1000 to 10000	1000 to 10000	+++ (≥350)	> 200
COc1ccc(C(F)(F)F)cc1CN[C@H]1[C@H](C(C)(C)OC)[C@@H](C(=O)O)N(C(=O)C2CCCCC2)[C@H]1c1ccccc1OC [II-295]	1000 to 10000	1000 to 10000	+++ (≥350)	100 to 200
COc1ccc(-c2ccccc2)nc1CN[C@H]1[C@H](C(C)(C)C)[C@@H](C(=O)O)N(C(=O)C2CCCCC2)[C@H]1c1ccccc1 [II-296]	1000 to 10000	1000 to 10000	+++ (≥350)	100 to 200
COc1ccc(C(C)(C)C)cc1CN[C@H]1[C@H](C(C)(C)C)[C@@H](C(=O)O)N(C(=O)C(OC)C(C)(C)C)[C@H]1c1ccccc1 (stereo partly drawn) [II-298]	1000 to 10000	1000 to 10000	+++ (≥350)	100 to 200
COc1ccc(C(F)(F)F)cc1CN[C@H]1[C@H](C(C)(C)C)[C@@H](C(=O)O)N(C(=O)C2Cc3ccccc3CO2)[C@H]1c1ccccc1 (stereo partly drawn) [II-299]	1000 to 10000	1000 to 10000	+++ (≥350)	100 to 200
COc1ccc(C(C)(C)C)cc1CN[C@H]1[C@H](C(C)(C)C)[C@@H](C(=O)O)N(C(=O)C2Cc3ccccc3CO2)[C@H]1c1ccccc1 (stereo partly drawn) [II-300]	< 1000	< 1000	+++ (≥350)	> 200
COc1ncc(C(C)(C)C)cc1CN[C@H]1[C@H](C(C)(C)C)[C@@H](C(=O)O)N(C(=O)Cc2c(F)cccc2F)[C@H]1c1ccccc1 [II-301]	1000 to 10000	< 1000	+++ (≥350)	> 200
COc1ccc(C(C)(C)C)cc1CN[C@H]1[C@H](C2(C)CC2)[C@@H](C(=O)O)N(C(=O)C2CCCCC2)[C@H]1c1ccccc1 [II-302]	1000 to 10000	< 1000	+++ (≥350)	> 200
COc1cc(C(F)(F)F)ccc1CN[C@H]1[C@H](C2(C)CC2)[C@@H](C(=O)O)N(C(=O)C2CCCCC2)[C@H]1c1ccccc1 [II-303]	1000 to 10000	1000 to 10000	+++ (≥350)	< 100
